Experimental findings from ChEMBL document CHEMBL1926633, “1,2,4-Triazole D-ribose derivatives: design, synthesis and antitumoral evaluation” (Eur J Med Chem, 2012) are described below.

A short description of the first data set: Lipophilicity, log P of the compound. The class given is physicochemical. Conditions: octanol/water.
The logP is a log measure of how a compound divides between an organic and an aqueous phase. As for `COc1cc(C2=NOC(CO[C@@H]3O[C@H](Cn4c(SCc5ccccc5)nnc4-c4ccc(Cl)cc4)[C@H]4OC5(CCCC5)O[C@@H]34)C2)cc(OC)c1OC` (mixture of isomers), the logP is 1.97.

Compound `COc1cc(C2=NOC(CO[C@@H]3O[C@H](CSc4ncn[nH]4)[C@H]4OC5(CCCC5)O[C@@H]34)C2)cc(OC)c1OC` (mixture of isomers) came in with a logP of 0.9.

With `COc1cc(C2=NOC(CO[C@@H]3O[C@H](Cn4c(SCc5ccccc5)nnc4-c4ccc(Cl)cc4)[C@@H](O)[C@H]3O)C2)cc(OC)c1OC` (mixture of isomers), the logP came to 1.17.

The compound `C=CCO[C@@H]1O[C@H](Cn2c(-c3ccc(Cl)cc3)n[nH]c2=S)[C@@H](O)[C@H]1O` gave a logP of 0.18.

`C=CCO[C@@H]1O[C@H](CSc2ncn[nH]2)[C@H]2OC3(CCCC3)O[C@@H]12` displayed a logP of 1.95.

The compound `COc1cc(C2=NOC(CO[C@@H]3O[C@H](CSc4ncn[nH]4)[C@@H](O)[C@H]3O)C2)cc(OC)c1OC` (mixture of isomers) gave a logP of -0.52.

Consider `C=CCO[C@@H]1O[C@H](Cn2c(SCc3ccccc3)nnc2-c2ccc(Cl)cc2)[C@H]2OC3(CCCC3)O[C@@H]12`, for which the logP worked out at 1.63.

For the compound `C=CCO[C@@H]1O[C@H](CSc2ncn[nH]2)[C@@H](O)[C@H]1O`, the logP was -2.45.

Regarding `C=CCO[C@@H]1O[C@H](Cn2c(-c3ccc(Cl)cc3)n[nH]c2=S)[C@H]2OC3(CCCC3)O[C@@H]12`, the logP was 1.91.

A further data set in a line: Cytotoxicity against mouse BW5147 cells expressing H-2 k haplotype, CD3+ and TCRalphabeta assessed as cell proliferation at 100 ug/mL after 24 hrs by [3H]TdR incorporation assay relative to control. The class given is functional. Conditions: read-out: Activity.
As to `COc1cc(C2=NOC(CO[C@@H]3O[C@H](Cn4c(SCc5ccccc5)nnc4-c4ccc(Cl)cc4)[C@H]4OC5(CCCC5)O[C@@H]34)C2)cc(OC)c1OC` (mixture of isomers), the growth at 100 µg/mL was -45%.

As to `COc1cc(C2=NOC(CO[C@@H]3O[C@H](CSc4ncn[nH]4)[C@H]4OC5(CCCC5)O[C@@H]34)C2)cc(OC)c1OC` (mixture of isomers), the growth at 100 µg/mL is -45%.

Take `COc1cc(C2=NOC(CO[C@@H]3O[C@H](Cn4c(SCc5ccccc5)nnc4-c4ccc(Cl)cc4)[C@@H](O)[C@H]3O)C2)cc(OC)c1OC` (mixture of isomers): the growth at 100 µg/mL was -67%.

With `C=CCO[C@@H]1O[C@H](Cn2c(-c3ccc(Cl)cc3)n[nH]c2=S)[C@@H](O)[C@H]1O`, the growth at 100 µg/mL came to 2%.

In the case of `C=CCO[C@@H]1O[C@H](CSc2ncn[nH]2)[C@H]2OC3(CCCC3)O[C@@H]12`, the growth at 100 µg/mL is -43%.

For the compound `COc1cc(C2=NOC(CO[C@@H]3O[C@H](CSc4ncn[nH]4)[C@@H](O)[C@H]3O)C2)cc(OC)c1OC` (mixture of isomers), the growth at 100 µg/mL worked out at 29%.

Turning to `C=CCO[C@@H]1O[C@H](CSc2ncn[nH]2)[C@@H](O)[C@H]1O`, the growth at 100 µg/mL was -38%.

Take `C=CCO[C@@H]1O[C@H](Cn2c(-c3ccc(Cl)cc3)n[nH]c2=S)[C@H]2OC3(CCCC3)O[C@@H]12`: the growth at 100 µg/mL was 123%.

The nature of a further data set: Cytotoxicity against mouse BW5147 cells expressing H-2 k haplotype, CD3+ and TCRalphabeta assessed as cell proliferation at 10 ug/mL after 24 hrs by [3H]TdR incorporation assay relative to control. The class given is functional. Particulars: read-out: Activity.
`COc1cc(C2=NOC(CO[C@@H]3O[C@H](Cn4c(SCc5ccccc5)nnc4-c4ccc(Cl)cc4)[C@H]4OC5(CCCC5)O[C@@H]34)C2)cc(OC)c1OC` (mixture of isomers): the growth at 10 µg/mL was 60%.

Take `COc1cc(C2=NOC(CO[C@@H]3O[C@H](CSc4ncn[nH]4)[C@H]4OC5(CCCC5)O[C@@H]34)C2)cc(OC)c1OC` (mixture of isomers): the growth at 10 µg/mL is -21%.

With `COc1cc(C2=NOC(CO[C@@H]3O[C@H](Cn4c(SCc5ccccc5)nnc4-c4ccc(Cl)cc4)[C@@H](O)[C@H]3O)C2)cc(OC)c1OC` (mixture of isomers), the growth at 10 µg/mL came out at 210%.

Regarding `C=CCO[C@@H]1O[C@H](Cn2c(-c3ccc(Cl)cc3)n[nH]c2=S)[C@@H](O)[C@H]1O`, the growth at 10 µg/mL was found to be 6%.

With `C=CCO[C@@H]1O[C@H](CSc2ncn[nH]2)[C@H]2OC3(CCCC3)O[C@@H]12`, the growth at 10 µg/mL is -9%.

Turning to `COc1cc(C2=NOC(CO[C@@H]3O[C@H](CSc4ncn[nH]4)[C@@H](O)[C@H]3O)C2)cc(OC)c1OC` (mixture of isomers), the growth at 10 µg/mL was 51%.

Turning to `C=CCO[C@@H]1O[C@H](Cn2c(SCc3ccccc3)nnc2-c2ccc(Cl)cc2)[C@H]2OC3(CCCC3)O[C@@H]12`, the growth at 10 µg/mL was found to be 0%.

As to `C=CCO[C@@H]1O[C@H](CSc2ncn[nH]2)[C@@H](O)[C@H]1O`, the growth at 10 µg/mL is -3%.

In the case of `C=CCO[C@@H]1O[C@H](Cn2c(-c3ccc(Cl)cc3)n[nH]c2=S)[C@H]2OC3(CCCC3)O[C@@H]12`, the growth at 10 µg/mL is 44%.

A further data set in a line: Cytotoxicity against mouse BW5147 cells expressing H-2 k haplotype, CD3+ and TCRalphabeta assessed as cell proliferation at 50 ug/mL after 24 hrs by [3H]TdR incorporation assay relative to control. The class given is functional. Particulars: read-out: Activity.
As for `COc1cc(C2=NOC(CO[C@@H]3O[C@H](Cn4c(SCc5ccccc5)nnc4-c4ccc(Cl)cc4)[C@H]4OC5(CCCC5)O[C@@H]34)C2)cc(OC)c1OC` (mixture of isomers), the growth at 50 µg/mL is -18%.

Turning to `COc1cc(C2=NOC(CO[C@@H]3O[C@H](CSc4ncn[nH]4)[C@H]4OC5(CCCC5)O[C@@H]34)C2)cc(OC)c1OC` (mixture of isomers), the growth at 50 µg/mL is -24%.

As to `COc1cc(C2=NOC(CO[C@@H]3O[C@H](Cn4c(SCc5ccccc5)nnc4-c4ccc(Cl)cc4)[C@@H](O)[C@H]3O)C2)cc(OC)c1OC` (mixture of isomers), the growth at 50 µg/mL was -52%.

Regarding `C=CCO[C@@H]1O[C@H](Cn2c(-c3ccc(Cl)cc3)n[nH]c2=S)[C@@H](O)[C@H]1O`, the growth at 50 µg/mL was determined as 4.4%.

For `C=CCO[C@@H]1O[C@H](CSc2ncn[nH]2)[C@H]2OC3(CCCC3)O[C@@H]12`, the growth at 50 µg/mL is -29%.

For `COc1cc(C2=NOC(CO[C@@H]3O[C@H](CSc4ncn[nH]4)[C@@H](O)[C@H]3O)C2)cc(OC)c1OC` (mixture of isomers), the growth at 50 µg/mL stood at 43%.

For `C=CCO[C@@H]1O[C@H](Cn2c(SCc3ccccc3)nnc2-c2ccc(Cl)cc2)[C@H]2OC3(CCCC3)O[C@@H]12`, the growth at 50 µg/mL is -13%.

For the compound `C=CCO[C@@H]1O[C@H](CSc2ncn[nH]2)[C@@H](O)[C@H]1O`, the growth at 50 µg/mL is -14%.

For the compound `C=CCO[C@@H]1O[C@H](Cn2c(-c3ccc(Cl)cc3)n[nH]c2=S)[C@H]2OC3(CCCC3)O[C@@H]12`, the growth at 50 µg/mL was determined as 70%.

The next data set in a line: Cytotoxicity against mouse BW5147 cells expressing H-2 k haplotype, CD3+ and TCRalphabeta assessed as cell proliferation at 1 ug/mL after 24 hrs by [3H]TdR incorporation assay relative to control. The class given is functional. Particulars: read-out: Activity.
`COc1cc(C2=NOC(CO[C@@H]3O[C@H](Cn4c(SCc5ccccc5)nnc4-c4ccc(Cl)cc4)[C@H]4OC5(CCCC5)O[C@@H]34)C2)cc(OC)c1OC` (mixture of isomers): the growth at 1 µg/mL came out at 215%.

As to `COc1cc(C2=NOC(CO[C@@H]3O[C@H](CSc4ncn[nH]4)[C@H]4OC5(CCCC5)O[C@@H]34)C2)cc(OC)c1OC` (mixture of isomers), the growth at 1 µg/mL was -5%.

Consider `COc1cc(C2=NOC(CO[C@@H]3O[C@H](Cn4c(SCc5ccccc5)nnc4-c4ccc(Cl)cc4)[C@@H](O)[C@H]3O)C2)cc(OC)c1OC` (mixture of isomers), for which the growth at 1 µg/mL was determined as 143%.

Turning to `C=CCO[C@@H]1O[C@H](Cn2c(-c3ccc(Cl)cc3)n[nH]c2=S)[C@@H](O)[C@H]1O`, the growth at 1 µg/mL is -1.5%.

For `C=CCO[C@@H]1O[C@H](CSc2ncn[nH]2)[C@H]2OC3(CCCC3)O[C@@H]12`, the growth at 1 µg/mL is -7%.

In the case of `COc1cc(C2=NOC(CO[C@@H]3O[C@H](CSc4ncn[nH]4)[C@@H](O)[C@H]3O)C2)cc(OC)c1OC` (mixture of isomers), the growth at 1 µg/mL came out at 93%.

On to `C=CCO[C@@H]1O[C@H](Cn2c(SCc3ccccc3)nnc2-c2ccc(Cl)cc2)[C@H]2OC3(CCCC3)O[C@@H]12`, for which the growth at 1 µg/mL stood at 37%.

Regarding `C=CCO[C@@H]1O[C@H](CSc2ncn[nH]2)[C@@H](O)[C@H]1O`, the growth at 1 µg/mL is -2.4%.

Turning to `C=CCO[C@@H]1O[C@H](Cn2c(-c3ccc(Cl)cc3)n[nH]c2=S)[C@H]2OC3(CCCC3)O[C@@H]12`, the growth at 1 µg/mL is 49%.
